Test system: P-PERK, P-eIF2α, CHOP10, PARP, caspase-3, ferritin in HT29 cells
Experiment: Western blot of ER stress and apoptosis proteins in HT29
Assay type: cell-based, human
Experimental: Western blot analysis was conducted as described previously ([35]). Briefly, the cells were cultured in 100 mm dishes for 48 h before treatment. The cells were then treated as described in the figure legends. For vehicle-treated samples, DMSO was added to serum-free culture medium at a maximum concentration of 0.1% (v/v). After experimentation, the cells were washed twice with phosphate buffer saline (PBS) and then 100 μl of Triton lysis buffer [25 mM HEPES, 100 mM NaCl, 1 mM EDTA, 10% (v/v) glycerol, 1% (v/v) Triton X-100], containing protease and […] inhibitors, was added to the cells. Protein concentrations were determined by using BCA reagents (Thermo Fisher Scientific Inc., IL). Equal concentrations of each sample were loaded onto SDS–PAGE gels and protein bands transferred to nitrocellulose membranes using semi-dry transfer cells (TRANS-BLOTSD; Bio-Rad Laboratories, Hercules, CA). The membranes were incubated for 2 h at room temperature in Odyssey blocking buffer (LI-COR Biosciences, Lincoln, NE). Membranes were then incubated overnight at 4C with primary antibody followed by 1 h of incubation at room temperature with secondary antibody. All primary antibodies were used at a dilution of 1:1,000 except anti-GAPDH and anti-CHOP10 antibodies which were used at 1:10,000 and 1:500 dilutions, respectively. All secondary antibodies were used at a dilution of 1:15,000. Protein bands were visualized using Odyssey® CLx digital fluorescence imaging system (LI-COR, Lincoln, Nebraska). Band intensities were quantified by using ImageJ software ([36]).

CC1CCC2C(C)C(OCC(COC3OC4OC5(C)CCC6C(C)CCC(C3C)C46OO5)=NO)OC3OC4(C)CCC1C32OO4 (centres unmarked) [compound (3)]
CHOP10 expression (HT29, 10 μM, 6 and 8 h): marked increase
cleavage of PARP (HT29, 10 μM, 8 and 16 h): stimulated the cleavage
cleavage of caspase-3 (HT29, 10 μM, 8 and 16 h): stimulated the cleavage
phosphorylation of PERK, increase compared to vehicle-treated cells (HT-29, 10 μM, 1 and 2 h): more than 7 fold
phosphorylation of eIF2α, increase compared to vehicle-treated cells (HT-29, 10 μM, 1 and 2 h): more than 7 fold
